# Laboratory results taken from ChEMBL document CHEMBL1667798, “Synthesis of new isoxazoline-based acidic amino acids and investigation of their affinity and selectivity profile at ionotropic glutamate receptors” (Eur J Med Chem, 2011).
# Tests used:
# [1] = Displacement of [3H]KAIN from kainate receptor in Sprague-Dawley rat brain synaptic membrane after 60 mins by scintillation counting
# Glutamate NMDA receptor [2] = experiment: Displacement of [3H]CPP from NMDA receptor in Sprague-Dawley rat brain synaptic membrane after 60 mins by scintillation counting
# [3] = Displacement of [3H]AMPA from AMPA receptor in Sprague-Dawley rat brain synaptic membrane after 30 mins by scintillation counting
# Glutamate NMDA receptor [4] = experiment: Displacement of [3H]CGP 39653 from NMDA receptor in Sprague-Dawley rat brain synaptic membrane after 60 mins by scintillation counting
SMILES,Ki [1] [µM],Ki (Glutamate NMDA receptor [2]) [µM],Ki [3] [µM],Ki (Glutamate NMDA receptor [4]) [µM]
Cc1onc(C(=O)O)c1CC(N)C(=O)O (racemic),6.3,> 100,0.02,
N[C@H](C[C@H]1CC(C(=O)O)=NO1)C(=O)O (racemic),> 100,,> 100,0.21
C[C@@H]1ON=C(C(=O)O)[C@@H]1C[C@H](N)C(=O)O (racemic),> 100,,> 100,18
C[C@H]1C(C(=O)O)=NO[C@H]1C[C@@H](N)C(=O)O (racemic),> 100,,4.1,3
C[C@H]1C(C(=O)O)=NO[C@H]1C[C@H](N)C(=O)O (racemic),56,,31,5.1
N[C@@]1(C(=O)O)C[C@@H]2ON=C(C(=O)O)[C@@H]2C1 (racemic),> 100,,> 100,
N[C@@H](C[C@H]1CC(C(=O)O)=NO1)C(=O)O (racemic),> 100,,> 100,0.96
C[C@@H]1ON=C(C(=O)O)[C@@H]1C[C@@H](N)C(=O)O (racemic),> 100,,> 100,60
